Reference: PMC6273584, “Synthesis of Thiazolo[5,4-f]quinazolin-9(8H)-ones as Multi-Target Directed Ligands of Ser/Thr Kinases” (Molecules, 2016)
pIC50: −log10 of the molar value. Where two headings read alike, the source gives them in different places.

How the values were obtained:
[1] = target: CLK1 (Homo sapiens, UniProt P49759); assay: biochemical
[2] = target: T1, CDK5/p25 (Homo sapiens, UniProt Q00535); assay: In vitro kinase assay CDK5/p25, [γ-33P]ATP, histone H1 substrate; type: biochemical
T1 construct: made in house
Experimental: (§1) It was also tested as positive control and its IC50 values were compared to those obtained for the compounds under study.
(§2) Buffer A: MgCl2 (10 mM), 1 mM ethylene glycol-bis(2-aminoethylether)-N,N,N’,N’- tetraacetic acid (EGTA), 1 mM dithiothreitol (DTT), 25 mM Tris-HCl pH 7.5, 50 μg heparin/mL. Buffer B: β-Glycerophosphate (60 mM), 30 mM p-nitrophenylphosphate, 25 mM 3-(N-morpholino) propanesulfonic acid (Mops) (pH 7.2), 5 mM EGTA, 15 mM MgCl2, 1 mM DTT, 0.1 mM sodium vanadate.
(§3) Blank values were substracted and activities expressed in % of the maximal activity, i.e., in the absence of inhibitors. Controls were performed with appropriate dilutions of dimethylsulfoxide (DMSO). IC50 values were calculated from dose-response curves established by Sigma-Plot graphs. The GSK-3, CK1, DYRK1A and CLK1 peptide substrates were obtained from Proteogenix (Oberhausbergen, France).
(§4) CDK5/p25. (Human, recombinant) was prepared as previously described. […] ATP (3000 Ci/mmol; 10 mCi/mL) in a final volume of 30 μL. After 30 min incubation at 30 °C, 25 μL aliquots of supernatant were spotted onto sheets of P81 phosphocellulose paper (Whatman) and 20 s later, the filters were washed eight times (for at least 5 min each time) in a solution of 10 mL phosphoric acid/L of water. The wet filters were counted in the presence of 1 mL ACS (Amersham, UK) scintillation fluid.

[3] = target: DYRK1A (Rattus norvegicus, UniProt Q63470); assay: In vitro kinase assay DYRK1A, Woodtide substrate; type: biochemical
Experimental: as §1, §2, §3, §4

[4] = target: CK1δ/ε; assay: In vitro kinase assay CK1δ/ε, CK1-specific peptide substrate; type: biochemical, Porcine
Experimental: as §1, §2, §3, §4
CK1δ/ε. (Porcine brain, native) was assayed as described for CDK5/p25 but using the CK1-specific peptide substrate […]pSAYSITA [37].

[5] = target: GSK-3α/β; assay: In vitro kinase assay GSK-3α/β, GS-1 peptide substrate; type: biochemical, Porcine
Experimental: as §1, §2, §3, §4
GSK-3α/β. (Porcine brain, native) was assayed, as described for CDK5/p25 but in buffer A and using a GSK-3 specific substrate (GS-1: […]pSEDEEE) (pS stands for phosphorylated serine).

[6] = 15 μM ATP, 30 min, 30 °C, triplicate, <50% inhibition at 10 μM = IC50 >10 μM

T1 sequence (Q00535 whole entry): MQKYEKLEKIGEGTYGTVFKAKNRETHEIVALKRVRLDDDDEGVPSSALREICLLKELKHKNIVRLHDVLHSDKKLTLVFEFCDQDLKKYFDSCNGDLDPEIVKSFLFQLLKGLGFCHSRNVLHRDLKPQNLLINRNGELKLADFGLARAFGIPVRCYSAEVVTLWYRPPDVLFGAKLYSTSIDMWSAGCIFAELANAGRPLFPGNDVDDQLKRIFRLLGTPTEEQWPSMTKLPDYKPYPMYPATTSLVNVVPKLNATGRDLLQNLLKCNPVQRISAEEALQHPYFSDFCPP
T1 sequence (Q15078 99-307 partner limits assumed): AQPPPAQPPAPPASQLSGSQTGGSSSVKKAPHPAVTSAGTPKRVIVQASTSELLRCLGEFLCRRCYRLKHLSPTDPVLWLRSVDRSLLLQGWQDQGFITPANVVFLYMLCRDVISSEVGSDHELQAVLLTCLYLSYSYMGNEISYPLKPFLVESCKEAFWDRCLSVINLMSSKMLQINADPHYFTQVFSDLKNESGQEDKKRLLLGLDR
CLK1, sequence (P49759 whole entry): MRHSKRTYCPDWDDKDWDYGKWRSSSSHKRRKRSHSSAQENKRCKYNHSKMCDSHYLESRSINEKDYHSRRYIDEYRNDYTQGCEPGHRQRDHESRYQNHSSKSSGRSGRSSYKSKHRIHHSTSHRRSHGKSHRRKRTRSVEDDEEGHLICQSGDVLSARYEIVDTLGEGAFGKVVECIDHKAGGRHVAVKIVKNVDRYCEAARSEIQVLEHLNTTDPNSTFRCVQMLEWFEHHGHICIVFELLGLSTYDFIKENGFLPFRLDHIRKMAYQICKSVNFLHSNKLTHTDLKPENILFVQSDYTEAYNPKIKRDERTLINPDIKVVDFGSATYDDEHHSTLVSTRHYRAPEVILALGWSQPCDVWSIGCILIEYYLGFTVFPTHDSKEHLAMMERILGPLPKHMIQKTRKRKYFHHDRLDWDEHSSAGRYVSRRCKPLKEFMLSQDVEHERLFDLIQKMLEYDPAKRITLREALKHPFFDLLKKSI

| pIC50 [1] | pIC50 [2] | pIC50 [3] | pIC50 [4, 6] | pIC50 [5] | SMILES | pIC50 [4] | pIC50 ([3]; read-out: DYRK1A IC50) | pIC50 [5, 6] |
| --- | --- | --- | --- | --- | --- | --- | --- | --- |
| 6.32 | < 5.00 | 6.80 | < 5.00 | 6.96 | COCCCn1cnc2ccc3nc(C(=N)OCc4ccccc4)sc3c2c1=O [Compound 13c, Benzyl 8-(3-methoxypropyl)-9-oxo-8,9-dihydrothiazolo[5,4-f]quinazoline-2-carbimidate] | – | – | – |
| 6.23 | < 5.00 | 6.54 | < 5.00 | 6.16 | COCCn1cnc2ccc3nc(C(=N)OCc4ccccc4)sc3c2c1=O [Compound 13b, Benzyl 8-(2-methoxyethyl)-9-oxo-8,9-dihydrothiazolo[5,4-f]quinazoline-2-carbimidate] | – | – | – |
| 7.00 | < 5.00 | 6.68 | < 5.00 | 6.70 | CCOC(=N)c1nc2ccc3ncn(C4CC4)c(=O)c3c2s1 [Compound 14a, Ethyl 8-cyclopropyl-9-oxo-8,9-dihydrothiazolo[5,4-f]quinazoline-2-carbimidate] | – | – | – |
| 6.47 | < 5.00 | 6.43 | < 5.00 | – | CCOC(=N)c1nc2ccc3ncn(C(C)C)c(=O)c3c2s1 [Compound 14d, Ethyl 8-isopropyl-9-oxo-8,9-dihydrothiazolo[5,4-f]quinazoline-2-carboximidoate] | – | – | – |
| 5.89 | < 5.00 | 6.55 | < 5.00 | 7.08 | N=C(OCc1ccccc1)c1nc2ccc3ncn(C4CCCCC4)c(=O)c3c2s1 [Compound 13g, Benzyl 8-cyclohexyl-9-oxo-8,9-dihydrothiazolo[5,4-f]quinazoline-2-carbimidate] | – | – | – |
| 7.22 | < 5.00 | 7.22 | < 5.00 | – | N=C(OCc1ccccc1)c1nc2ccc3ncn(C4CC4)c(=O)c3c2s1 [Compound 13a, Benzyl 8-cyclopropyl-9-oxo-8,9-dihydrothiazolo[5,4-f]quinazoline-2-carbimidate] | – | – | 7.00 |

The next lines start with the molecule.

| SMILES | pIC50 [1] | pIC50 [2] | pIC50 [3] | pIC50 [4, 6] | pIC50 [5] | pIC50 [4] | pIC50 ([3]; read-out: DYRK1A IC50) | pIC50 [5, 6] |
| --- | --- | --- | --- | --- | --- | --- | --- | --- |
| CCOC(=N)c1nc2ccc3ncn(C4CCCC4)c(=O)c3c2s1 [Compound 14e, Ethyl 8-cyclopentyl-9-oxo-8,9-dihydrothiazolo[5,4-f]quinazoline-2-carbimidate] | 6.11 | < 5.00 | 6.64 | < 5.00 | 7.54 | – | – | – |
| COC(=N)c1nc2ccc3ncn(C(C)C)c(=O)c3c2s1 [Compound 12d, Methyl 8-isopropyl-9-oxo-8,9-dihydrothiazolo[5,4-f]quinazoline-2-carbimidate] | 6.80 | 5.52 | 6.85 | – | 7.39 | 5.27 | – | – |
| CN(C)n1cnc2ccc3nc(C(=N)OCc4ccccc4)sc3c2c1=O [Compound 13h, Benzyl 8-dimethylamino-9-oxo-8,9-dihydrothiazolo[5,4-f]quinazoline-2-carbimidate] | 5.85 | < 5.00 | 6.68 | < 5.00 | 6.82 | – | – | – |
| N#Cc1nc2ccc3ncn(C4CC4)c(=O)c3c2s1 [Compound 11a, 8-Cyclopropyl-9-oxo-8,9-dihydrothiazolo[5,4-f]quinazoline-2-carbonitrile] | 5.96 | < 5.00 | 5.48 | < 5.00 | 5.48 | – | – | – |
| COC(=N)c1nc2ccc3ncn(C4CCCC4)c(=O)c3c2s1 [Compound 12e, Methyl 8-cyclopentyl-9-oxo-8,9-dihydrothiazolo[5,4-f]quinazoline-2-carbimidate] | 6.54 | 5.31 | 7.14 | < 5.00 | 7.55 | – | – | – |
| COC(=N)c1nc2ccc3ncn(CCN4CCOCC4)c(=O)c3c2s1 [Compound 12j, Methyl 8-(2-morpholinoethyl)-9-oxo-8,9-dihydrothiazolo[5,4-f]quinazoline-2-carbimidate] | 6.16 | < 5.00 | 6.70 | < 5.00 | 5.92 | – | – | – |
| COC(=N)c1nc2ccc3ncn(C)c(=O)c3c2s1 [Compound 12n, Methyl 8-methyl-9-oxo-8,9-dihydrothiazolo[5,4-f]quinazoline-2-carbimidate] | 7.10 | < 5.00 | 6.74 | < 5.00 | 5.77 | – | – | – |
| COC(=N)c1nc2ccc3ncn(C4CC4)c(=O)c3c2s1 [Compound 12a, Methyl 8-cyclopropyl-9-oxo-8,9-dihydrothiazolo[5,4-f]quinazoline-2-carbimidate] | 7.51 | 5.41 | – | < 5.00 | 7.09 | – | 7.04 | – |
| COc1ccc2c(c1)[nH]c1c(C)nccc12 [Harmine, reference compound] | – | – | – | – | – | 5.82 | – | < 5.00 |
| COC(=N)c1nc2ccc3ncn(-c4ccc(OC)cc4)c(=O)c3c2s1 [Compound 12l, Methyl 8-(4-methoxyphenyl)-9-oxo-8,9-dihydrothiazolo[5,4-f]quinazoline-2-carbimidate] | 5.10 | < 5.00 | 5.52 | < 5.00 | 5.92 | – | – | – |
| COC(=N)c1nc2ccc3ncn(C4CCCCC4)c(=O)c3c2s1 [Compound 12g, Methyl 8-cyclohexyl-9-oxo-8,9-dihydrothiazolo[5,4-f]quinazoline-2-carbimidate] | 6.42 | 5.74 | 6.77 | < 5.00 | 7.52 | – | – | – |
| COCCn1cnc2ccc3nc(C#N)sc3c2c1=O [Compound 11b, 8-(2-Methoxyethyl)-9-oxo-8,9-dihydrothiazolo[5,4-f]quinazoline-2-carbonitrile] | 5.39 | < 5.00 | 5.11 | < 5.00 | – | – | – | ≤ 5.00 |
| COC(=N)c1nc2ccc3ncn(-c4ccc(C)cc4)c(=O)c3c2s1 [Compound 12k, Methyl 8-(p-tolyl)-9-oxo-8,9-dihydrothiazolo[5,4-f]quinazoline-2-carbimidate] | 6.06 | < 5.00 | 6.42 | < 5.00 | 6.29 | – | – | – |
| COCCCn1cnc2ccc3nc(C(=N)OC)sc3c2c1=O [Compound 12c, Methyl 8-(3-methoxypropyl)-9-oxo-8,9-dihydrothiazolo[5,4-f]quinazoline-2-carbimidate] | 6.68 | < 5.00 | 6.49 | < 5.00 | 6.92 | – | – | – |
| COC(=N)c1nc2ccc3ncn(N(C)C)c(=O)c3c2s1 [Compound 12h, Methyl 8-dimethylamino-9-oxo-8,9-dihydrothiazolo[5,4-f]quinazoline-2-carbimidate] | 6.00 | < 5.00 | – | < 5.00 | 6.52 | – | 6.30 | – |
| N=C(OCc1ccccc1)c1nc2ccc3ncn(C4CCC4)c(=O)c3c2s1 [Compound 13f, Benzyl 8-cyclobutyl-9-oxo-8,9-dihydrothiazolo[5,4-f]quinazoline-2-carbimidate] | 7.15 | < 5.00 | 7.23 | < 5.00 | 7.15 | – | – | – |
| COC(=N)c1nc2ccc3ncn(-c4ccc(N(C)C)cc4)c(=O)c3c2s1 [Compound 12m, Methyl 8-(4-dimethylaminophenyl)-9-oxo-8,9-dihydrothiazolo[5,4-f]quinazoline-2-carbimidate] | < 5.00 | < 5.00 | < 5.00 | < 5.00 | – | – | – | < 5.00 |
